Literature values as cited in patent publication US7090851B1, “Long lasting fusion peptide inhibitors of viral infection” (priority 1999, dated 2006).
Entries after “also recorded” stand apart in the source; their conditions may differ.

tested on: respiratory syncytial virus (RSV); details: Hep-2 cells

Substance	concentration inhibiting fusion and syncytia formation between RSV-infected and uninfected Hep-2 cells
IALLSTNKAVVSLSNGVSVLTSKVLDLKNYIDK [SEQ ID NO:29, anti-RSV peptide]	less than 50 μg/ml

same assay, conditions: RSV-infected and uninfected Hep-2 cells

Substance	inhibition of RSV viral infection, fusion and syncytia formation
IALLSTNKAVVSLSNGVSVLTSKVLDLKNYIDK [SEQ ID NO:29, anti-RSV peptide]	inhibits viral infection
TSVITIELSNIKENKCNGAKVKLIKQELDKYKN (TSVITIELSNIKENKCNGDAKVKLIKQELDKYKN) [SEQ ID NO:15, anti-RSV peptide]	inhibits viral infection
YTSVITIELSNIKENKCNGAKVKLIKQELDKYK (YTSVITIELSNIKENKCNGDAKVKLIKQELDKYK) [SEQ ID NO:14, anti-RSV peptide]	inhibits viral infection
VITIELSNIKENKCNGAKVKLIKQELDKYKNAV (VITIELSNIKENKCNGDAKVKLIKQELDKYKNAV) [SEQ ID NO:16, anti-RSV peptide]	inhibits viral infection

tested on: simian immunodeficiency virus (SIV); details: as crude peptide

Substance	anti-SIV activity
WERKVDFLEENITALLEEAQIQQEKNMYELQKLNS [SEQ ID NO:67]	potent antiviral activity
EWERKVDFLEENITALLEEAQIQQEKNMYELQKLN [SEQ ID NO:66]	potent antiviral activity
ERKVDFLEENITALLEEAQIQQEKNMYELQKLNSW [SEQ ID NO:68]	potent antiviral activity
KVDFLEENITALLEEAQIQQEKNMYELQKLNSWDV [SEQ ID NO:70]	potent antiviral activity
FLEENITALLEEAQIQQEKNMYELQKLNSWDVFGN [SEQ ID NO:73]	potent antiviral activity
VDFLEENITALLEEAQIQQEKNMYELQKLNSWDVF [SEQ ID NO:71]	potent antiviral activity
DFLEENITALLEEAQIQQEKNMYELQKLNSWDVFG [SEQ ID NO:72]	potent antiviral activity
QEWERKVDFLEENITALLEEAQIQQEKNMYELQKL [SEQ ID NO:65]	potent antiviral activity
RKVDFLEENITALLEEAQIQQEKNMYELQKLNSWD [SEQ ID NO:69]	potent antiviral activity
WQEWERKVDFLEENITALLEEAQIQQEKNMYELQK [SEQ ID NO:64]	potent antiviral activity

tested on: human parainfluenza virus 3 (HPIV3); details: HPIV3-infected Hep2 cells and uninfected CV-1W cells

Substance	inhibition of HPIV3 viral infection, fusion and syncytia formation
VEAKQARSDIEKLKEAIRDTNKAVQSVQSSIGNLI [SEQ ID NO:52]	inhibits viral infection
DPIDISIELNKAKSDLEESKEWIRRSNQKLDSIGN (LDPIDISIELNKAKSDLEESKEWIRRSNQKLDSIG) [SEQ ID NO:40, anti-HPIV peptide]	inhibits viral infection
ALDPIDISIELNKAKSDLEESKEWIRRSNQKLDSI (VALDPIDISIELNKAKSDLEESKEWIRRSNQKLDS) [SEQ ID NO:38, anti-HPIV peptide]	inhibits viral infection
RSDIEKLKEAIRDTNKAVQSVQSSIGNLIVAIKSV [SEQ ID NO:58]	inhibits viral infection
LDPIDISIELNKAKSDLEESKEWIRRSNQKLDSIG (ALDPIDISIELNKAKSDLEESKEWIRRSNQKLDSI) [SEQ ID NO:39, anti-HPIV peptide]	inhibits viral infection
NSVALDPIDISIELNKAKSDLEESKEWIRRSNQKL (NNSVALDPIDISIELNKAKSDLEESKEWIRRSNQK) [SEQ ID NO:35, anti-HPIV peptide]	inhibits viral infection
PIDISIELNKAKSDLEESKEWIRRSNQKLDSIGNW (DPIDISIELNKAKSDLEESKEWIRRSNQKLDSIGN) [SEQ ID NO:41, anti-HPIV peptide]	inhibits viral infection
IDISIELNKAKSDLEESKEWIRRSNQKLDSIGNWH (PIDISIELNKAKSDLEESKEWIRRSNQKLDSIGNW) [SEQ ID NO:42, anti-HPIV peptide]	inhibits viral infection

tested on: measles virus (MeV); details: MeV-infected and uninfected Vero cells

Substance	inhibition of MeV viral infection, fusion and syncytia formation
IDLGPPISLERLDVGTNLGNAIAKLEAKELLESS [SEQ ID NO:79]	inhibits viral infection
HRIDLGPPISLERLDVGTNLGNAIAKLEAKELLE [SEQ ID NO:77]	inhibits viral infection
PISLERLDVGTNLGNAIAKLEAKELLESSDQILR [SEQ ID NO:84]	inhibits viral infection

tested on: HIV-1; details: infection and cell-cell fusion

Substance	anti-HIV-1 activity (words)
enfuvirtide	potent inhibitor of HIV-1; also recorded: potent anti-HIV-1 activity

same assay, conditions: infection and cell-cell fusion; listed as DP-107

Substance	anti-HIV-1 activity (words)
NNLLRAIEAQQHLLQLTVWQIKQLQARILAVERYLKDQ [DP107]	potent inhibitors of HIV-1 infection and fusion

same assay, conditions: infection and cell-cell fusion; listed as DP-178

Substance	anti-HIV-1 activity (words)
enfuvirtide	potent inhibitors of HIV-1 infection and fusion
